Assay results taken from ChEMBL document CHEMBL4834415, “Distinct Lugdunins from a New Efficient Synthesis and Broad Exploitation of Its MRSA-Antimicrobial Structure” (2021).
≈ marks a conversion by molar mass, not a printed value.

System: Staphylococcus aureus
Assay: Antibacterial activity against methicillin-resistant Staphylococcus aureus USA300 LAC assessed as reduction in bacterial growth incubated for 21 hrs by broth dilution method
Assay type: functional

**Q.** `CC(C)C[C@H]1NC(=O)[C@@H]2CSC(N2)[C@H](C(C)C)NC(=O)[C@@H](C(C)C)NC(=O)[C@H](C(C)C)NC(=O)[C@@H](C(C)C)NC(=O)[C@H](Cc2c[nH]c3ccccc23)NC1=O` was tested. Which MIC did it give?
**A.** 128 µM (≈ 100 µg/mL)

**Q.** Which MIC does the source give for `CC(C)CC[C@H]1NC(=O)[C@@H]2CSC(N2)[C@H](C(C)C)NC(=O)[C@@H](C(C)C)NC(=O)[C@H](C(C)C)NC(=O)[C@@H](CC(C)C)NC(=O)[C@H](Cc2c[nH]c3ccccc23)NC1=O` here?
**A.** 61.7 µM (≈ 50 µg/mL)

**Q.** Which MIC does the source give for `CC(C)C[C@H]1NC(=O)[C@H](Cc2cn(C)c3ccccc23)NC(=O)[C@@H](C(C)C)NC(=O)[C@@H]2CSC(N2)[C@H](C(C)C)NC(=O)[C@@H](C(C)C)NC(=O)[C@H](C(C)C)NC1=O` here?
**A.** 15.7 µM (≈ 12.5 µg/mL)

**Q.** How did the MIC turn out when `C#CC[C@@H]1NC(=O)[C@@H](C(C)C)NC(=O)[C@@H]2CSC(N2)[C@H](C(C)C)NC(=O)[C@@H](C(C)C)NC(=O)[C@H](C(C)C)NC(=O)[C@@H](CC(C)C)NC1=O` was run?
**A.** 72.4 µM (≈ 50.1 µg/mL)

**Q.** How did the MIC turn out when `C#CC[C@H]1NC(=O)[C@H](Cc2c[nH]c3ccccc23)NC(=O)[C@@H](C(C)C)NC(=O)[C@@H]2CSC(N2)[C@H](C(C)C)NC(=O)[C@@H](Cc2c[nH]c3ccccc23)NC(=O)[C@H](C(C)C)NC1=O` was run?
**A.** 58.8 µM (≈ 50.1 µg/mL)

**Q.** For `CC(C)C[C@H]1NC(=O)[C@H](Cc2ccc(O)cc2)NC(=O)[C@@H](C(C)C)NC(=O)[C@@H]2CSC(N2)[C@H](C(C)C)NC(=O)[C@@H](C(C)C)NC(=O)[C@H](C(C)C)NC1=O`, which MIC is on record?
**A.** 132 µM (≈ 100 µg/mL)

**Q.** For `CC(C)C[C@H]1NC(=O)[C@H](Cc2c[nH]c3ccccc23)NC(=O)[C@@H](Cc2c[nH]c3ccccc23)NC(=O)[C@@H]2CSC(N2)[C@H](C(C)C)NC(=O)[C@@H](C(C)C)NC(=O)[C@H](C(C)C)NC1=O`, which MIC is on record?
**A.** 28.8 µM (≈ 25.1 µg/mL)

**Q.** Which MIC does the source give for `CC(C)C[C@H]1NC(=O)[C@H](Cc2c3ccccc3cc3ccccc23)NC(=O)[C@@H](C(C)C)NC(=O)[C@@H]2CSC(N2)[C@H](C(C)C)NC(=O)[C@@H](C(C)C)NC(=O)[C@H](C(C)C)NC1=O` here?
**A.** 7.4 µM (≈ 6.25 µg/mL)

**Q.** `CC[C@H](C)[C@H]1NC(=O)[C@@H]2CSC(N2)[C@H](C(C)C)NC(=O)[C@@H](Cc2c[nH]c3ccccc23)NC(=O)[C@H](C(C)C)NC(=O)[C@@H](CC(C)C)NC(=O)[C@H](Cc2c3ccccc3cc3ccccc23)NC1=O` was tested. Which MIC did it give?
**A.** 106 µM (≈ 100 µg/mL)

**Q.** For `CCC[C@H]1NC(=O)[C@@H]2CSC(N2)[C@H](C(C)C)NC(=O)[C@@H](C(C)C)NC(=O)[C@H](C(C)C)NC(=O)[C@@H](CC(C)C)NC(=O)[C@H](Cc2c[nH]c3ccccc23)NC1=O`, which MIC is on record?
**A.** 16 µM (≈ 12.5 µg/mL)

**Q.** For `C=CC[C@H]1NC(=O)[C@H](Cc2c[nH]c3ccccc23)NC(=O)[C@@H](C(C)C)NC(=O)[C@@H]2CSC(N2)[C@H](C(C)C)NC(=O)[C@@H](Cc2c[nH]c3ccccc23)NC(=O)[C@H](C(C)C)NC1=O`, which MIC is on record?
**A.** 58.6 µM (≈ 50 µg/mL)

**Q.** `CCC[C@H]1NC(=O)[C@H](Cc2c[nH]c3ccccc23)NC(=O)[C@@H](C(C)C)NC(=O)[C@@H]2CSC(N2)[C@H](C(C)C)NC(=O)[C@@H](Cc2c[nH]c3ccccc23)NC(=O)[C@H](C(C)C)NC1=O` was tested. Which MIC did it give?
**A.** 14.6 µM (≈ 12.5 µg/mL)

**Q.** For `CC(C)C[C@H]1NC(=O)[C@H](Cc2c[nH]c3ccccc23)NC(=O)[C@@H](C(C)(C)C)NC(=O)[C@@H]2CSC(N2)[C@H](C(C)C)NC(=O)[C@@H](C(C)C)NC(=O)[C@H](C(C)C)NC1=O`, which MIC is on record?
**A.** 31.4 µM (≈ 25 µg/mL)

**Q.** How did the MIC turn out when `CC(C)C[C@H]1NC(=O)[C@H](Cc2c[nH]c3ccccc23)NC(=O)[C@@H](C(C)C)NC(=O)[C@@H]2CSC(N2)[C@H](C(C)C)NC(=O)[C@@H](Cc2c[nH]c3ccccc23)NC(=O)[C@H](C(C)C)NC1=O` was run?
**A.** 1.8 µM (≈ 1.57 µg/mL)

**Q.** Which MIC does the source give for `CC[C@@H](C)[C@H]1NC(=O)[C@H](Cc2c[nH]c3ccccc23)NC(=O)[C@@H](C(C)C)NC(=O)[C@@H]2CSC(N2)[C@H](C(C)C)NC(=O)[C@@H](C(C)C)NC(=O)[C@H](C(C)C)NC1=O` here?
**A.** 14.4 µM (≈ 11.3 µg/mL)

**Q.** Which MIC does the source give for `C=CC[C@H]1NC(=O)[C@@H]2CSC(N2)[C@H](C(C)C)NC(=O)[C@@H](Cc2c[nH]c3ccccc23)NC(=O)[C@H](C(C)C)NC(=O)[C@@H](CC(C)C)NC(=O)[C@H](Cc2c[nH]c3ccccc23)NC1=O` here?
**A.** 14.4 µM (≈ 12.5 µg/mL)

**Q.** Which MIC does the source give for `CC(C)[C@@H]1NC(=O)[C@@H](Cc2c[nH]c3ccccc23)NC(=O)[C@H](C(C)C)NC(=O)[C@@H](Cc2c[nH]c3ccccc23)NC(=O)[C@H](Cc2c[nH]c3ccccc23)NC(=O)[C@@H](C(C)C)NC(=O)[C@@H]2CSC1N2` here?
**A.** 106 µM (≈ 100 µg/mL)

**Q.** Which MIC does the source give for `CC(C)C[C@H]1NC(=O)[C@H](Cc2c[nH]c3ccccc23)NC(=O)[C@@H](Cc2ccccc2)NC(=O)[C@@H]2CSC(N2)[C@H](C(C)C)NC(=O)[C@@H](C(C)C)NC(=O)[C@H](C(C)C)NC1=O` here?
**A.** 120 µM (≈ 100 µg/mL)

**Q.** `CC(C)C[C@H]1NC(=O)[C@@H]2Cc3ccccc3CN2C(=O)[C@@H](C(C)C)NC(=O)[C@@H]2CSC(N2)[C@H](C(C)C)NC(=O)[C@@H](C(C)C)NC(=O)[C@H](C(C)C)NC1=O` was tested. Which MIC did it give?
**A.** 132 µM (≈ 100 µg/mL)

**Q.** `CC(C)[C@@H]1NC(=O)[C@@H](Cc2c[nH]c3ccccc23)NC(=O)[C@H](C(C)C)NC(=O)[C@@H](C(C)(C)C)NC(=O)[C@H](Cc2c[nH]c3ccccc23)NC(=O)[C@@H](C(C)C)NC(=O)[C@@H]2CSC1N2` was tested. Which MIC did it give?
**A.** 28.8 µM (≈ 25.1 µg/mL)

**Q.** With `CC(C)C[C@H]1NC(=O)[C@@H]2CSC(N2)[C@H](C(C)C)NC(=O)[C@@H](Cc2c[nH]c3ccccc23)NC(=O)[C@H](C(C)C)NC(=O)[C@@H](CC(C)C)NC(=O)[C@H](Cc2c[nH]c3ccccc23)NC1=O` as the molecule, how does the MIC read?
**A.** 113 µM (≈ 99.9 µg/mL)

**Q.** `CC[C@@H](C)[C@H]1NC(=O)[C@@H]2CSC(N2)[C@H](C(C)C)NC(=O)[C@@H](C(C)C)NC(=O)[C@H](C(C)C)NC(=O)[C@@H](CC(C)C)NC(=O)[C@H](Cc2c[nH]c3ccccc23)NC1=O` was tested. Which MIC did it give?
**A.** 31.4 µM (≈ 25 µg/mL)

**Q.** With `CSCC[C@H]1NC(=O)[C@H](Cc2c[nH]c3ccccc23)NC(=O)[C@@H](C(C)C)NC(=O)[C@@H]2CSC(N2)[C@H](C(C)C)NC(=O)[C@@H](Cc2c[nH]c3ccccc23)NC(=O)[C@H](C(C)C)NC1=O` as the molecule, how does the MIC read?
**A.** 113 µM (≈ 100 µg/mL)

**Q.** With `CC(C)C[C@@H]1NC(=O)[C@@H](C(C)C)NC(=O)[C@H](C(C)C)NC(=O)[C@@H](C(C)C)NC(=O)[C@@H]2CSC(N2)[C@H](C(C)C)NC(=O)[C@@H](Cc2c[nH]c3ccccc23)NC1=O` as the molecule, how does the MIC read?
**A.** 8 µM (≈ 6.26 µg/mL)

**Q.** `CC(C)C[C@H]1NC(=O)[C@H](Cc2ccccc2)NC(=O)[C@@H](C(C)C)NC(=O)[C@@H]2CSC(N2)[C@H](C(C)C)NC(=O)[C@@H](C(C)C)NC(=O)[C@H](C(C)C)NC1=O` was tested. Which MIC did it give?
**A.** 16.8 µM (≈ 12.5 µg/mL)

**Q.** `CSCC[C@H]1NC(=O)[C@@H]2CSC(N2)[C@H](C(C)C)NC(=O)[C@@H](Cc2c[nH]c3ccccc23)NC(=O)[C@H](C(C)C)NC(=O)[C@@H](CC(C)C)NC(=O)[C@H](Cc2c[nH]c3ccccc23)NC1=O` was tested. Which MIC did it give?
**A.** 111 µM (≈ 100 µg/mL)

**Q.** How did the MIC turn out when `CCC[C@H]1NC(=O)[C@@H]2CSC(N2)[C@H](C(C)C)NC(=O)[C@@H](Cc2c[nH]c3ccccc23)NC(=O)[C@H](C(C)C)NC(=O)[C@@H](CC(C)C)NC(=O)[C@H](Cc2c[nH]c3ccccc23)NC1=O` was run?
**A.** 7.2 µM (≈ 6.26 µg/mL)

**Q.** With `CC(C)[C@@H]1NC(=O)[C@@H](Cc2c[nH]c3ccccc23)NC(=O)[C@H](C(C)C)NC(=O)[C@@H](Cc2ccccc2)NC(=O)[C@H](Cc2c[nH]c3ccccc23)NC(=O)[C@@H](C(C)C)NC(=O)[C@@H]2CSC1N2` as the molecule, how does the MIC read?
**A.** 111 µM (≈ 100 µg/mL)

**Q.** For `CC[C@H](C)[C@H]1NC(=O)[C@H](Cc2c[nH]c3ccccc23)NC(=O)[C@@H](C(C)C)NC(=O)[C@@H]2CSC(N2)[C@H](C(C)C)NC(=O)[C@@H](C(C)C)NC(=O)[C@H](C(C)C)NC1=O`, which MIC is on record?
**A.** 31.9 µM (≈ 25 µg/mL)

**Q.** `CC(C)[C@@H]1NC(=O)[C@@H](Cc2c[nH]c3ccccc23)NC(=O)[C@H](C(C)C)NC(=O)[C@H]2CCCN2C(=O)[C@H](Cc2c[nH]c3ccccc23)NC(=O)[C@@H](C(C)C)NC(=O)[C@@H]2CSC1N2` was tested. Which MIC did it give?
**A.** 117 µM (≈ 100 µg/mL)

**Q.** `CC(C)[C@@H]1NC(=O)[C@@H](Cc2c[nH]c3ccccc23)NC(=O)[C@H](C(C)C)NC(=O)C2(CC2)NC(=O)[C@H](Cc2c[nH]c3ccccc23)NC(=O)[C@@H](C(C)C)NC(=O)[C@@H]2CSC1N2` was tested. Which MIC did it give?
**A.** 119 µM (≈ 100 µg/mL)

**Q.** For `C#CC[C@H]1NC(=O)[C@@H]2CSC(N2)[C@H](C(C)C)NC(=O)[C@@H](Cc2c[nH]c3ccccc23)NC(=O)[C@H](C(C)C)NC(=O)[C@@H](CC(C)C)NC(=O)[C@H](Cc2c[nH]c3ccccc23)NC1=O`, which MIC is on record?
**A.** 3.9 µM (≈ 3.38 µg/mL)
